From patent US12465050B2, “Compositions comprising a pyridine carboxylate herbicide and protoporphyrinogen oxidase (protox) inhibitor herbicides” (priority 2018, dated 2025)

Assays:
Assay type in all cases: in vivo
[1] = system: Matricaria chamomilla (wild chamomile); assay: Greenhouse postemergence herbicidal effect on MATCH
Source text: (§1) Greenhouse Trial Methodology—Evaluation of Postemergence Herbicidal Effect
(§2) Seeds of the desired test plant species were planted in a 90:10% v/v (volume/volume) mixture of PRO-MIX® BX (Premier Tech Horticulture, Quakertown, Pa., USA) and PROFILE® GREENS GRADE™ (Profile Products LLC, Buffalo Grove, Ill., USA) planting mixture, which typically has a pH of 5.2 to 6.2 and an organic matter content of at least 50 percent, in plastic pots with a surface area of 103.2 square centimeters (cm^2). In some aspects or embodiments, to help ensure good germination and healthy plants, a fungicide treatment and/or other chemical or physical treatment was applied. The plants were grown for 7-36 days (d) in a greenhouse with an approximate 14-hour (h) photoperiod which was maintained at about 23° C. during the day and 22° C. during the night. Nutrients and water were added on a regular basis and supplemental lighting was provided with overhead metal halide 1000-Watt lamps as necessary. The plants were employed for testing when they reached the second or third true leaf stage.
(§3) Emulsifiable concentrates of each of each pyridine carboxylate herbicide (Compound A or Compound B) were prepared at 100 grams acid equivalent per liter (g ae/L). The emulsifiable concentrates also included a safener, cloquintocet mexyl, at 120 grams active ingredient per liter (g ai/L). An aliquot of each emulsifiable concentrate was placed in a 25 mL glass vial and diluted with an aqueous mixture of 1.25% (v/v) ACTIROB® B esterified rapeseed oil (Bayer Crop Science, Research Triangle Park, N.C., USA) or MSO® Concentrate with LECI-TECH® methylated soybean oil (Loveland Products, Loveland, Colo., USA) to obtain concentrated stock solutions at the highest application rate for each herbicide, based upon a 12 milliliter (mL) application volume at a rate of 187 liters per hectare (L/ha). The concentrated stock solutions were further diluted with an aqueous mixture of 1.25% v/v ACTIROB® B or MSO® Concentrate with LECI-TECH® to obtain stock solutions at reduced application rates for each herbicide. Spray solutions of the herbicide combinations (Compound A or Compound B plus PROTOX inhibitor herbicide) were prepared by adding weighed amounts or aliquots of the PROTOX inhibitor herbicides to the stock solutions of Compound A or Compound B to form 12-mL spray solutions in two-way combinations.
(§4) The spray solutions were applied to the plant material with an overhead Mandel track sprayer equipped with 8002E nozzles calibrated to deliver 187 L/ha over an application area of 0.503 square meters (m^2) at a spray height of 18 inches (43 centimeters (cm)) above the average plant canopy. Control plants were sprayed in the same manner with the solvent blank. All pyridine carboxylate herbicide (component a) application rates are given as “g ae/ha” and all PROTOX inhibitor herbicide (component b) application rates are given as “g ai/ha.”
(§5) The treated plants and control plants were placed in a greenhouse as described above and watered by sub-irrigation to prevent wash-off of the test compounds. After 20-22 d, the condition of the test plants as compared with that of the control plants was determined visually and scored on a scale of 0 to 100 percent where 0 corresponds to no injury and 100 corresponds to complete kill.

[2] = system: Triticum aestivum (winter wheat); assay: Greenhouse postemergence phytotoxicity on crop TRZAW; conditions: Compound A 0, Oxyfluorfen 560 g/ha
Source text: as §1, §2
as §3, with “combinations. […]” for “combinations.”
as §5

[3] = system: Papaver rhoeas (common poppy); assay: Greenhouse postemergence herbicidal effect on PAPRH; conditions: Compound A 0, Oxyfluorfen 560 g/ha
Source text: as §1, §2
as §3, with “combinations. […]” for “combinations.”
as §5

[4] = system: Veronica hederifolia (ivy-leaved speedwell); assay: Greenhouse postemergence herbicidal effect on VERHE; conditions: Compound A 0, Oxyfluorfen 560 g/ha
Source text: as §1, §2
as §3, with “combinations. […]” for “combinations.”
as §5

[5] = system: Triticum aestivum (spring wheat); assay: Greenhouse postemergence phytotoxicity on crop TRZAS
Source text: as §1, §2, §3, §4, §5

[6] = system: Matricaria inodora (scentless chamomile); assay: Greenhouse postemergence herbicidal effect on MATIN; conditions: Compound A 0, Oxyfluorfen 560 g/ha
Source text: as §1, §2
as §3, with “combinations. […]” for “combinations.”
as §5

[7] = system: Lamium purpureum (purple deadnettle); assay: Greenhouse postemergence herbicidal effect on LAMPU; conditions: Compound A 0, Oxyfluorfen 560 g/ha
Source text: as §1, §2
as §3, with “combinations. […]” for “combinations.”
as §5

[8] = system: Sinapis arvensis (wild mustard); assay: Greenhouse postemergence herbicidal effect on SINAR
Source text: as §1, §2, §3, §4, §5

[9] = system: Stellaria media (chickweed); assay: Greenhouse postemergence herbicidal effect on STEME; conditions: Compound A 0, Oxyfluorfen 560 g/ha
Source text: as §1, §2
as §3, with “combinations. […]” for “combinations.”
as §5

[10] = system: Salsola kali (Russian thistle); assay: Greenhouse postemergence herbicidal effect on SASKR
Source text: as §1, §2, §3, §4, §5

[11] = system: Polygonum convolvulus (wild buckwheat); assay: Greenhouse postemergence herbicidal effect on POLCO
Source text: as §1, §2, §3, §4, §5

[12] = system: Viola tricolor (wild pansy); assay: Greenhouse postemergence herbicidal effect on VIOTR
Source text: as §1, §2, §3, §4, §5

[13] = system: Viola arvensis (field violet); assay: Greenhouse postemergence herbicidal effect on VIOAR; conditions: Compound A 0, Oxyfluorfen 560 g/ha
Source text: as §1, §2
as §3, with “combinations. […]” for “combinations.”
as §5

[14] = system: Kochia scoparia (kochia); assay: Greenhouse postemergence herbicidal effect on KCHSC
Source text: as §1, §2, §3, §4, §5

[15] = system: Papaver rhoeas (herbicide-resistant poppy); assay: Greenhouse postemergence herbicidal effect on PAPRH-RES; conditions: Compound A 0, Oxyfluorfen 560 g/ha
Source text: as §1, §2
as §3, with “combinations. […]” for “combinations.”
as §5

[16] = system: Hordeum vulgare (spring barley); assay: Greenhouse postemergence phytotoxicity on crop HORVS
Source text: as §1, §2, §3, §4, §5

[17] = system: Veronica persica (Persian speedwell); assay: Greenhouse postemergence herbicidal effect on VERPE; conditions: Compound A 0, Oxyfluorfen 560 g/ha
Source text: as §1, §2
as §3, with “combinations. […]” for “combinations.”
as §5

[18] = system: Matricaria discoidea (pineapple weed); assay: Greenhouse postemergence herbicidal effect on MATMT; conditions: Compound A 0, Oxyfluorfen 560 g/ha
Source text: as §1, §2
as §3, with “combinations. […]” for “combinations.”
as §5

[19] = system: Brassica napus (winter rape); assay: Greenhouse postemergence herbicidal effect on BRSNW
Source text: as §1, §2, §3, §4, §5

[20] = system: Cirsium arvense (Canadian thistle); assay: Greenhouse postemergence herbicidal effect on CIRAR
Source text: as §1, §2, §3, §4, §5

[21] = system: Capsella bursa-pastoris (shepherd's purse); assay: Greenhouse postemergence herbicidal effect on CAPBP; conditions: Compound A 0, Oxyfluorfen 560 g/ha
Source text: as §1, §2
as §3, with “combinations. […]” for “combinations.”
as §5

[22] = system: Anthemis arvensis (corn chamomile); assay: Greenhouse postemergence herbicidal effect on ANTAR; conditions: Compound A 0, Oxyfluorfen 560 g/ha
Source text: as §1, §2
as §3, with “combinations. […]” for “combinations.”
as §5

[23] = system: Cyanus segetum (cornflower); assay: Greenhouse postemergence herbicidal effect on CENCY; conditions: Compound A 0, Oxyfluorfen 560 g/ha
Source text: as §1, §2
as §3, with “combinations. […]” for “combinations.”
as §5

[24] = system: Hordeum vulgare (winter barley); assay: Greenhouse postemergence phytotoxicity on crop HORVW; conditions: Compound A 0, Oxyfluorfen 560 g/ha
Source text: as §1, §2
as §3, with “combinations. […]” for “combinations.”
as §5

[25] = system: Amaranthus retroflexus (pigweed); assay: Greenhouse postemergence herbicidal effect on AMARE; conditions: Compound A 0, Pyraflufen-ethyl 6 g/ha
Source text: as §1, §2, §3, §4, §5

[26] = system: Chenopodium album L. (common lambsquarters); assay: Greenhouse postemergence herbicidal effect on CHEAL; conditions: Compound A 0, Pyraflufen-ethyl 6 g/ha
Source text: as §1, §2, §3, §4, §5

[27] = system: Brassica napus (spring rape); assay: Greenhouse postemergence herbicidal effect on BRSNN; conditions: Compound A 0, Bifenox 90 g/ha
Source text: as §1, §2, §3, §4, §5

[28] = system: Digitaria sanguinalis (large crabgrass); assay: Greenhouse postemergence herbicidal effect on DIGSA; conditions: Compound A 0, Bifenox 90 g/ha
Source text: as §1, §2
(§6) Emulsifiable concentrates of each of each pyridine carboxylate herbicide (Compound A or Compound B) were prepared at 100 grams acid equivalent per liter (g ae/L). The emulsifiable concentrates also included a safener, cloquintocet mexyl, at 120 grams active ingredient per liter (g ai/L). […]
as §5

[29] = system: Avena fatua (wild oat); assay: Greenhouse postemergence herbicidal effect on AVEFA; conditions: Compound A 0, Bifenox 90 g/ha
Source text: as §1, §2, §6, §5

[30] = system: Rumex obtusifolius (broad-leaf dock); assay: Greenhouse postemergence herbicidal effect on RUMOB; conditions: Compound A 0, Bifenox 90 g/ha
Source text: as §1, §2, §3, §4, §5

[31] = system: Setaria faberi (giant foxtail); assay: Greenhouse postemergence herbicidal effect on SETFA; conditions: Compound A 0, Bifenox 90 g/ha
Source text: as §1, §2, §3, §4, §5

[32] = system: Echinochloa crus-galli (barnyard grass); assay: Greenhouse postemergence herbicidal effect on ECHCG; conditions: Compound A 0, Bifenox 90 g/ha
Source text: as §1, §2, §6, §5

[33] = Compound A 0, Oxyfluorfen 560 g/ha
[34] = Compound A 0, Pyraflufen-ethyl 6 g/ha
[35] = Compound A 0, Carfentrazone-ethyl 5 g/ha

CCOc1cc(Oc2ccc(C(F)(F)F)cc2Cl)ccc1[N+](=O)[O-] [Oxyfluorfen, 2-chloro-1-(3-ethoxy-4-nitrophenoxy)-4-(trifluoromethyl)benzene, reference compound]
% visual injury, Obs [1, 33]: 25% | % visual injury, Obs [2]: 20% | % visual injury, Obs [3]: 70% | % visual injury, Obs [4]: 5% | % visual injury, Obs [5, 33]: 23% | % visual injury, Obs [6]: 0% | % visual injury, Obs [7]: 10% | % visual injury, Obs [8, 33]: 20% | % visual injury, Obs [9]: 0% | % visual injury, Obs [10, 33]: 60% | % visual injury, Obs [11, 33]: 80% | % visual injury, Obs [12, 33]: 60% | % visual injury, Obs [13]: 40% | % visual injury, Obs [14, 33]: 55% | % visual injury, Obs [15]: 45% | % visual injury, Obs [16, 33]: 70% | % visual injury, Obs [17]: 20% | % visual injury, Obs [18]: 5% | % visual injury, Obs [19, 33]: 20% | % visual injury, Obs [20, 33]: 35% | % visual injury, Obs [21]: 0% | % visual injury, Obs [22]: 5% | % visual injury, Obs [23]: 15% | % visual injury, Obs [24]: 50%

CCOC(=O)COc1cc(-c2nn(C)c(OC(F)F)c2Cl)c(F)cc1Cl [Pyraflufen-ethyl, ethyl 2-chloro-5-[4-chloro-5-(difluoromethoxy)-1-methyl-1H-pyrazol-3-yl]-4-fluorophenoxyacetate, reference compound]
% visual injury, Obs [25]: 18% | % visual injury, Obs [1, 34]: 0% | % visual injury, Obs [5, 34]: 0% | % visual injury, Obs [26]: 5% | % visual injury, Obs [8, 34]: 0% | % visual injury, Obs [10, 34]: 5% | % visual injury, Obs [11, 34]: 0% | % visual injury, Obs [14, 34]: 0% | % visual injury, Obs [16, 34]: 0% | % visual injury, Obs [19, 34]: 0% | % visual injury, Obs [20, 34]: 10%

COC(=O)c1cc(Oc2ccc(Cl)cc2Cl)ccc1[N+](=O)[O-] [Bifenox, methyl 5-(2,4-dichlorophenoxy)-2-nitrobenzoate, reference compound]
% visual injury, Obs [27]: 23% | % visual injury, Obs [28]: 25% | % visual injury, Obs [29]: 5% | % visual injury, Obs [30]: 0% | % visual injury, Obs ([12]; Compound A 0, Bifenox 90 g/ha): 0% | % visual injury, Obs ([14]; Compound A 0, Bifenox 90 g/ha): 73% | % visual injury, Obs [31]: 18% | % visual injury, Obs ([20]; Compound A 0, Bifenox 90 g/ha): 18% | % visual injury, Obs [32]: 15%

CCOC(=O)C(Cl)Cc1cc(-n2nc(C)n(C(F)F)c2=O)c(F)cc1Cl (stereo not drawn) [Carfentrazone-ethyl, ethyl α,2-dichloro-5-[4-(difluoromethyl)-4,5-dihydro-3-methyl-5-oxo-1H-1,2,4-triazol-1-yl]-4-fluorobenzenepropanoate, reference compound]
% visual injury, Obs [5, 35]: 0% | % visual injury, Obs [10, 35]: 68% | % visual injury, Obs [11, 35]: 5% | % visual injury, Obs [14, 35]: 20% | % visual injury, Obs [16, 35]: 8%
